Reference: patent US11739063B2, “DREADD actuators” (The United States of America, as represented by the …, priority 2018, dated 2023)
“Also recorded” adds a separate entry of the source. Like-named read-outs stand apart in the source and are kept apart here.

Columns and labels:
hM3Dq [1] = target: T1, hM3Dq (Homo sapiens, UniProt P20309, A239G/Y149C); assay: Radioligand binding assay, [3H]clozapine competition, hM3Dq membranes; set-up: host or cells: HEK-293; settings: for Ki: HEK-293 membranes, 2.5 nM [3H]clozapine, Cheng-Prusoff; for Binding to the tested DREADDs (in words): hM3Dq and hM4Di
Experimental: (§1) HEK-293 cells were transfected with 5 μg/dish of pAAV plasmids encoding for hM3Dq (available from Addgene, Cambridge, Mass., plasmid #89149), hM4Di (available from Addgene, Cambridge, Mass., plasmid #89150) or a control vector and harvested 48 hours after transfection. […] The protein was quantified by the bicinchoninic acid method. […] Microscint-20 scintillation liquid ([…]) was added to the filter plates, plates were incubated overnight at room temperature and radioactivity counts were determined in a MICROBETA^2™ (PerkinElmer, Waltham, Mass.) plate counter with an efficiency of 41%. Competition curves were fitted to a one binding site model and Ki values were calculated using the Cheng-Prusoff equation.

hM4Di [2] = target: T2, hM4Di (Homo sapiens, UniProt P08173, A203G/Y113C); assay: Radioligand binding assay, [3H]clozapine competition, hM4Di membranes; set-up: host or cells: HEK-293; settings: HEK-293 membranes, 2.5 nM [3H]clozapine, Cheng-Prusoff
T2 sequence (P08173 1-479 Y113C/A203G): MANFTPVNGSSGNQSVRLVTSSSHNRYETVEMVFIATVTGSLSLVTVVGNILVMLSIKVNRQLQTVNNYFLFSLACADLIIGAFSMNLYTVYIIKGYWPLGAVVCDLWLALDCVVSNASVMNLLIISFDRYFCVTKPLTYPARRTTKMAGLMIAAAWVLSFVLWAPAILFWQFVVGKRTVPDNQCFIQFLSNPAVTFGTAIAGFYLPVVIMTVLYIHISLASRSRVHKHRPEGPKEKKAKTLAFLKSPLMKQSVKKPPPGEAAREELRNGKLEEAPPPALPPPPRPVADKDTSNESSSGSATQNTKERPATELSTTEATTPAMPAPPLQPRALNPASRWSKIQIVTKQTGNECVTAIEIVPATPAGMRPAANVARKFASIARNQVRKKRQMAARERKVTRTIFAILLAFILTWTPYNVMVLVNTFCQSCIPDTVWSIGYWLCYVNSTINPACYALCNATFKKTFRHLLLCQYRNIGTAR
Experimental: as §1

[3] = test system: D1-hM3Dq, D1-hM4Di or WT mice; assay: FDG-PET brain metabolic mapping (DREAMM); format: in vivo
Experimental: The study was set up as follows. Mice (D1-hM3Dq, D1-hM4Di or WT littermates) were habituated to experimenter handling and fasted 16 hours before the experiment. On the day of the experiment, mice received an IP injection of vehicle (1 ml/kg) and were placed back into their home cages. Ten minutes later, mice were injected (IP) with 11 MBq of 2-deoxy-2-[^18F]fluoro-D-glucose (FDG, Cardinal Health, Westmont, Ill.) and placed back into their home cages. After 30 minutes, mice were anesthetized with 1.5% isoflurane, placed on a custom-made bed of a NANOSCAN small animal PET/CT scanner (Mediso Medical Imaging Systems) and scanned for 20 min on a static acquisition protocol, followed by a CT scan. […] In all cases, the PET data were reconstructed and co-registered to an MRI template as described above. Voxel-based repeated measures with Student's t-test comparing baseline to drug were performed, and the resulting parametric images were filtered for statistically significant (p<0.05) clusters larger than 100 contiguous voxels. All statistical parametric mapping analyses were performed using MATLAB R2016 (Mathworks, Chicago, Ill.) and SPM12 (University College London).

[4] = test system: DREADDs (hM3Dq, hM4Di) and endogenous clozapine-binding sites; assay: Autoradiography, [3H]clozapine displacement in brain sections of wild-type and transgenic DREADD mice; settings: about 3.5 nM [3H]clozapine, WT
Experimental: Flash frozen brain tissue was sectioned (20 μm) on a cryostat and thaw mounted onto ethanol-washed glass slides. […] Following incubation, the slides were washed with an incubation buffer for 5 mins (2×) followed by a 30 second dip in ice-cold deionized H2O. The slides were then air-dried, placed in a […]™ (GE Healthcare, UK) autoradiography cassette, covered with a BAS-TR2025 Storage Phosphor Screen (GE Healthcare, UK), exposed for 3-5 days, and imaged using a phosphorimager.

hM4Di (Gi1) = target: T3, hM4Di (Gi1) (Homo sapiens, UniProt P08173, A203G/Y113C); assay: BRET assay of Gi1 activation in HEK-293 cells with hM4Di; format: cell-based; settings: for EC50: BRET change 5 minutes after addition; for Gi1 activation (BRET ratio): cells with hM4Di versus cells without DREADDs
T3 construct: host or cells: HEK-293
T3 sequence (P08173 1-479 Y113C/A203G): T2 sequence (P08173 1-479 Y113C/A203G)
Experimental: (§2) Bioluminescence resonance energy transfer (“BRET”) assays were performed to detect receptor ligand-induced Gi/o protein activation. […] Forty-eight hours after transfection cells were harvested, washed and resuspended in phosphate-buffered saline (“PBS”). Approximately 200,000 cells/well were distributed in 96-well plates, and 5 μM Coelenterazine H (substrate for luciferase) was added to each well.
(§3) Results were calculated for the BRET change (BRET ratio for the corresponding compound minus BRET ratio in the absence of the compound) 5 minutes after the addition of the compounds.

hM4Di (Go1) = target: T4, hM4Di (Go1) (Homo sapiens, UniProt P08173, A203G/Y113C); assay: BRET assay of Go1 activation in HEK-293 cells with hM4Di; format: cell-based; settings: for EC50: BRET change 5 minutes after addition; for Go1 activation (BRET ratio): cells with hM4Di versus cells without DREADDs
T4 construct: host or cells: HEK-293
T4 sequence (P08173 1-479 Y113C/A203G): T2 sequence (P08173 1-479 Y113C/A203G)
Experimental: as §2, §3

[5] = test system: mice with D1-hM3Dq receptors; assay: Locomotor activity assay (open-field test); format: in vivo; settings: 0.01, 0.1, 1 mg/kg intraperitoneal; compared with clozapine
Experimental: Transgenic male and female mice (25-30 g, offspring of D1-Cre (heterozygous)×R26-hM3Dq/mCitrine (heterozygous) crossing) either heterozygous for both loci (CRE+, het het) or wild type for D1-Cre (CRE−, wt het) were tested for locomotor activity. The mice were injected (intraperitoneal) with the indicated dose of clozapine, compound I(g), or vehicle (buffered saline).

hM4Di [6] = target: T2, hM4Di; assay: hM4Di-driven inhibition of light-evoked neuronal activation; format: in vivo; settings: 0.1 mg/kg
hM3Dq [7] = target: T1, hM3Dq; assay: Calcium accumulation assay (GCaMP6f) in HEK293 cells with hM3Dq; settings: for hM3Dq activation (fluorescence, calcium accumulation): cells with hM3Dq versus cells without DREADDs
Experimental: The changes in fluorescence were read every 18 seconds for 5 minutes.

T1 sequence (P20309 whole entry Y149C/A239G): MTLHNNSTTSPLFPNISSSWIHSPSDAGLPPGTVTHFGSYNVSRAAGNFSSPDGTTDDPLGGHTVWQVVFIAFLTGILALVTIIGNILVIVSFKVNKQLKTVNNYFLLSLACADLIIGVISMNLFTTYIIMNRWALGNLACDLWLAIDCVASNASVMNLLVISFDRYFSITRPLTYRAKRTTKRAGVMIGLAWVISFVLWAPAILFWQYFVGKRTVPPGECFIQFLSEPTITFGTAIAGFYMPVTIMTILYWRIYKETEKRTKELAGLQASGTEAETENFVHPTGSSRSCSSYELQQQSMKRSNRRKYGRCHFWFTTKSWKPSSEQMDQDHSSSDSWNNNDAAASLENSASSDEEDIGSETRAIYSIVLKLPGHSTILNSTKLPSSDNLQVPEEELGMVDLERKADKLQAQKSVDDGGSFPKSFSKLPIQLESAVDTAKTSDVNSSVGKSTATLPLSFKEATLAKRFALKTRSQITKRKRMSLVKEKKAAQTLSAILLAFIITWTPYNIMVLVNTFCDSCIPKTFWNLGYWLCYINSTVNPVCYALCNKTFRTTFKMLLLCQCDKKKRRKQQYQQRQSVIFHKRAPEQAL

CCN1CCN(C2=Nc3ccccc3Nc3cccc(F)c32)CC1 [Compound I(e), 11-(4-Ethylpiperazin-1-yl)-1-fluoro-5H-dibenzo[b,e][1,4]diazepine]
Ki (hM3Dq [1]): 4.8 nM | Ki (hM4Di [2]): 14.2 nM

CCN1CCN(C2=Nc3ccccc3Nc3ccc(F)cc32)CC1 [Compound I(b), 11-(4-Ethylpiperazin-1-yl)-2-fluoro-5H-dibenzo[b,e][1,4]diazepine]
Ki (hM3Dq [1]): 33.5 nM | Ki (hM4Di [2]): 118 nM

CCN1CCN(C2=Nc3cc(Cl)ccc3Nc3ccc(F)cc32)CC1 [Compound I(a), 8-chloro-11-(4-ethylpiperazin-1-yl)-2-fluoro-5H-dibenzo[b,e][1,4]diazepine]
Recruitment of whole-brain functional networks (FDG-PET) ([3]; D1-hM3Dq and D1-hM4Di mice, 0.1 mg/kg, n=4 per condition): opposing and differential recruitment of whole-brain functional networks | Ki (hM3Dq [1]): 10.5 nM | Ki (hM4Di [2]): 23.5 nM

CCN1CCN(C2=Nc3cc(Cl)ccc3Nc3c(F)cccc32)CC1 [Compound I(h), 8-Chloro-11-(4-ethylpiperazin-1-yl)-4-fluoro-5H-dibenzo[b,e][1,4]diazepine]
Displacement of [3H]clozapine binding ([4]; at 10 nM): selectively displaced [^3H]clozapine binding to DREADDs but not to endogenous sites | Displacement of [3H]clozapine binding ([4]; at 1 μM): completely displaced [^3H]clozapine binding to both DREADDs and endogenous clozapine-binding sites | EC50 (hM4Di (Gi1)): 0.073 nM | Gi1 activation (BRET ratio) (hM4Di (Gi1)): activate Gi1 | EC50 (hM4Di (Go1)): 0.14 nM | Go1 activation (BRET ratio) (hM4Di (Go1)): activate Go1 | Reduction of locomotor activity (distance traveled) [5]: more effective than clozapine at reducing locomotor activity | Brain metabolism change (DREAMM) ([3]; D1-hM3Dq mice, 0.1 mg/kg IP): decreased metabolism | Brain metabolism change (DREAMM) ([3]; D1-hM4Di mice, 0.1 mg/kg IP): increased metabolism | Brain metabolic changes (FDG-PET) ([3]; WT mice, 0.1 mg/kg IP): no significant brain metabolic changes | Inhibition of light-evoked neuronal activation (hM4Di [6]): rapid and potent hM4Di-driven inhibition | Ki (hM3Dq [1]): 1.9 nM | Binding to the tested DREADDs (in words) (hM3Dq [1]): especially effective at binding the tested DREADDs | Ki (hM4Di [2]): 3.6 nM | EC50 (hM3Dq [7]): 2.64 nM | hM3Dq activation (fluorescence, calcium accumulation) (hM3Dq [7]): effective at activating hM3Dq

CCN1CCN(C2=Nc3cc(F)ccc3Nc3ccccc32)CC1 [Compound I(f), 11-(4-Ethylpiperazin-1-yl)-8-fluoro-5H-dibenzo[b,e][1,4]diazepine]
Ki (hM3Dq [1]): 23.7 nM | Ki (hM4Di [2]): 12.9 nM

C[N+]1([O-])CCN(C2=Nc3cc(Cl)ccc3Nc3ccccc32)CC1 [CNO, clozapine n-oxide, reference compound]
EC50 (hM4Di (Gi1)): 13 nM | EC50 (hM4Di (Go1)): 3.1 nM | EC50 (hM3Dq [7]; read-out: EC50 value for hM3Dq, mean, calcium accumulation, fluorescence): 11.3 nM

CCN1CCN(C2=Nc3cc(Cl)ccc3Nc3cccc(F)c32)CC1 [Compound I(g), 8-Chloro-11-(4-ethylpiperazin-1-yl)-1-fluoro-5H-dibenzo[b,e][1,4]diazepine]
EC50 (hM4Di (Gi1)): 0.24 nM | Gi1 activation (BRET ratio) (hM4Di (Gi1)): activate Gi1 | EC50 (hM4Di (Go1)): 0.8 nM | Go1 activation (BRET ratio) (hM4Di (Go1)): activate Go1 | Reduction of locomotor activity (distance traveled) [5]: more effective than clozapine at reducing locomotor activity | Ki (hM3Dq [1]): 1.7 nM | Binding to the tested DREADDs (in words) (hM3Dq [1]): especially effective at binding the tested DREADDs | Ki (hM4Di [2]): 8.7 nM | EC50 (hM3Dq [7]): 5.15 nM | hM3Dq activation (fluorescence, calcium accumulation) (hM3Dq [7]): effective at activating hM3Dq

CCN1CCN(C2=Nc3ccccc3Nc3cc(F)ccc32)CC1 [Compound I(d), 11-(4-Ethylpiperazin-1-yl)-3-fluoro-5H-dibenzo[b,e][1,4]diazepine]
Ki (hM3Dq [1]): 101 nM | Ki (hM4Di [2]): 149 nM

c1ccc2c(c1)N=C(N1CCNCC1)c1ccccc1N2 [Compound 21, reference compound]
EC50 (hM4Di (Gi1)): 2.7 nM | EC50 (hM4Di (Go1)): 1.7 nM | Brain metabolic activity (FDG-PET) ([3]; WT mice, 1 mg/kg): significant changes in brain metabolic activity; also recorded: decreased metabolic activity of multiple networks | EC50 (hM3Dq [7]): 1.66 nM

CCN1CCN(C2=Nc3cc(Cl)ccc3Nc3cc(F)ccc32)CC1 [Compound I(c), 8-Chloro-11-(4-ethylpiperazin-1-yl)-3-fluoro-5H-dibenzo[b,e][1,4]diazepine]
Ki (hM3Dq [1]): 51.4 nM | Ki (hM4Di [2]): 51.3 nM

[2H]C([2H])(C)N1CCN(C2=Nc3cc(Cl)ccc3Nc3ccccc32)CC1 [Compound 13, reference compound]
EC50 (hM4Di (Gi1)): 0.067 nM | EC50 (hM4Di (Go1)): 0.063 nM | EC50 (hM3Dq [7]): 1.43 nM
